Assay results as given in patent US20160242416A1, “FUNGICIDAL ISOXAZOLINE CARBINOLS” (E I DU PONT DE NEMOURS AND COMPANY, priority 2015, published 2016).

What was measured:
[1] = tested on: Puccinia recondita f sp. tritici; test: Test F: wheat leaf rust, preventive spray on wheat seedlings; conditions: 100 = 100% disease control; for Test F disease control rating: 10 ppm test solution, 0 = no control relative to controls; for Test F rating (% disease control): 10 ppm, wheat leaf rust, 0 = no control
[2] = tested on: Erysiphe graminis f sp. tritici; test: Test G: wheat powdery mildew, preventive spray on wheat seedlings; conditions: 100 = 100% disease control; for Test G disease control rating: 10 ppm test solution, 0 = no control relative to controls; for Test G rating (% disease control): 10 ppm, wheat powdery mildew, 0 = no control
Stagonospora nodorum = test: Test D: wheat glume blotch, preventive spray on wheat seedlings; conditions: 100 = 100% disease control; for Test D disease control rating: 10 ppm test solution, 0 = no control relative to controls; for Test D rating (% disease control): 10 ppm, wheat glume blotch, 0 = no control
Zymoseptoria tritici = test: Test E: wheat leaf blotch, preventive spray on wheat seedlings; conditions: 100 = 100% disease control; for Test E disease control rating: 10 ppm test solution, 0 = no control relative to controls; for Test E rating (% disease control): 10 ppm, wheat leaf blotch, 0 = no control
Excerpt: General protocol for preparing test solutions for Tests A-G: the test compounds were first dissolved in acetone in an amount equal to 3% of the final volume and then suspended at the desired concentration (in ppm) in acetone and purified water (50/50 mix by volume) containing 250 ppm of the surfactant PEG400 (polyhydric alcohol esters). The resulting test suspensions were then used in Tests A-G. Compounds were sprayed at a concentration of 50 ppm (*) or 10 ppm to the point of run-off on the test plants, the equivalent of a rate of 200 g/ha or 40 g/ha, respectively.
The test solution was sprayed to the point of run-off on wheat seedlings. The following day the seedlings were inoculated with a spore suspension of Zymoseptoria tritici (the causal agent of wheat leaf blotch) and incubated in a saturated atmosphere at 24° C. for 48 h, and then moved to a growth chamber at 20° C. for 17 days, after which time visual disease ratings were made.
Compounds with an asterisks (*) were applied at a concentration of 50 ppm, otherwise test solutions were applied at 10 ppm.

| SMILES | Test F disease control rating [1] | Test G disease control rating [2] | Test D disease control rating (Stagonospora nodorum) | Test E disease control rating (Zymoseptoria tritici) | Test F rating (% disease control) [1] | Test G rating (% disease control) [2] | Test D rating (% disease control) (Stagonospora nodorum) | Test E rating (% disease control) (Zymoseptoria tritici) |
| --- | --- | --- | --- | --- | --- | --- | --- | --- |
| CC(C)(C)CC(O)(Cn1cncn1)C1=NOC(COc2ccc(F)cc2)C1 (single isomer, unassigned) [Compound 245] | 98% | 98% | 51% | 2% | – | – | – | – |
| OC(Cn1cncn1)(C1=NOC(COc2ccc(Cl)cc2)C1)C1CCCCC1 (single isomer, unassigned) [Compound 266] | 100% | 100% | 100% | 0% | – | – | – | – |
| CC1(C(O)(Cn2cncn2)C2=NOC(COc3ccc(C(F)(F)F)cc3)C2)CC1 (single isomer, unassigned) [Compound 237] | 100% | 98% | 89% | 0% | – | – | – | – |
| COc1ccc(OCC2CC(C(O)(Cn3cncn3)C(C)(C)C)=NO2)cc1 (single isomer, unassigned) [Compound 259] | 92% | 99% | 99% | 0% | – | – | – | – |
| CC(C)CC(O)(Cn1cncn1)C1=NOC(COc2ccc(Cl)cc2)C1 (single isomer, unassigned) [Compound 268] | 100% | 95% | 82% | 0% | – | – | – | – |
| CC(C)(C)C(O)(Cn1cncn1)C1=NOC(CCOc2ccc(F)cc2)C1 (single isomer, unassigned) [Compound 270] | 100% | 100% | 99% | 75% | – | – | – | – |
| CC(C)CC(O)(Cn1cncn1)C1=NOC(COc2ccc(Cl)cc2)C1 (single isomer, unassigned) [Compound 267] | 100% | 100% | 100% | 3% | – | – | – | – |
| CC(C)(C)C(O)(Cn1cncn1)C1=NOC(COCc2ccc(Cl)cc2)C1 (single isomer, unassigned) [Compound 263] | 87% | 99% | 99% | 0% | – | – | – | – |
| CC(C)(C)C(O)(Cn1cncn1)C1=NOC(CCOc2ccc(Cl)cc2)C1 (single isomer, unassigned) [Compound 209] | – | – | – | – | 100% | 100% | 99% | 11% |
| CCC(C)(C)C(O)(Cn1cncn1)C1=NOC(COc2ccc(F)cc2)C1 (single isomer, unassigned) [Compound 250] | 99% | 99% | 64% | 0% | – | – | – | – |
| CC1(C(O)(Cn2cncn2)C2=NOC(COc3ccc(Cl)cc3)C2)CC1 (single isomer, unassigned) [Compound 225] | 100% | 99% | – | 0% | – | – | – | – |
| CC(C)(C)C(O)(Cn1cncn1)C1=NOC(COc2ccc(Cl)cc2)C1 (single isomer, unassigned) [Compound 243] | 99% | 0% | 0% | 0% | – | – | – | – |
| CC(C)(C)C(O)(Cn1cnnn1)C1=NOC(COc2ccc(Cl)cc2)C1 (centres unmarked) [Compound 247] | 97% | 0% | 0% | 24% | – | – | – | – |
| OC(Cn1cncn1)(C1=NOC(COc2ccc(Cl)cc2)C1)C1CCCCC1 (single isomer, unassigned) [Compound 265] | 100% | 100% | 99% | 1% | – | – | – | – |
| OC(Cn1cncn1)(C1=NOC(COc2ccc(Cl)cc2)C1)C1(Cl)CC1 (single isomer, unassigned) [Compound 251] | 100% | 100% | 100% | 3% | – | – | – | – |
| Cc1ccc(OCC2CC(C(O)(Cn3cncn3)C(C)(C)C)=NO2)cc1 (single isomer, unassigned) [Compound 235] | 87% | 99% | – | 8% | – | – | – | – |
| CC1(C(O)(Cn2cncn2)C2=NOC(COc3ccc(Br)cc3)C2)CC1 (single isomer, unassigned) [Compound 239] | 100% | 99% | 98% | 0% | – | – | – | – |
| CC(C)(C)C(O)(Cn1cncn1)C1=NOC(COc2ccc(-c3ccccc3)cc2)C1 (single isomer, unassigned) [Compound 228] | 86% | 99% | 0% | 12% | – | – | – | – |

| SMILES | Test F disease control rating [1] | Test G disease control rating [2] | Test D disease control rating (Stagonospora nodorum) | Test E disease control rating (Zymoseptoria tritici) | Test F rating (% disease control) [1] | Test G rating (% disease control) [2] | Test D rating (% disease control) (Stagonospora nodorum) | Test E rating (% disease control) (Zymoseptoria tritici) |
| --- | --- | --- | --- | --- | --- | --- | --- | --- |
| CC(C)(C)CC(O)(Cn1cncn1)C1=NOC(COc2ccc(C(F)(F)F)cc2)C1 (single isomer, unassigned) [Compound 240] | 100% | 99% | – | 0% | – | – | – | – |
| COc1ccc(OCC2CC(C(O)(Cn3cncn3)C(C)(C)C)=NO2)cc1 (single isomer, unassigned) [Compound 260] | 98% | 100% | 99% | 1% | – | – | – | – |
| CCC(C)(C)C(O)(Cn1cncn1)C1=NOC(COc2ccc(F)cc2)C1 (single isomer, unassigned) [Compound 249] | 100% | 100% | 100% | 0% | – | – | – | – |
| CC(C)(C)C(O)(Cn1cncn1)C1=NOC(COc2cccc(C(F)(F)F)c2)C1 (single isomer, unassigned) [Compound 253] | 100% | 100% | 99% | 3% | – | – | – | – |
| CC(C)(C)CC(O)(Cn1cncn1)C1=NOC(COc2ccc(F)cc2)C1 (single isomer, unassigned) [Compound 244] | 100% | 99% | 99% | 0% | – | – | – | – |
| CC(C)(C)C(O)(Cn1cnnn1)C1=NOC(COc2ccc(Cl)cc2)C1 (centres unmarked) [Compound 246] | 100% | 95% | 98% | 0% | – | – | – | – |
| OC(COc1ccc(Cl)cc1)(Cn1cncn1)C1=NOC(c2ccc(Cl)cc2)C1 (centres unmarked) [Compound 273] | 98% | 69% | 11% | 2% | – | – | – | – |
| CCC(C)(C)C(O)(Cn1cncn1)C1=NOC(COc2ccc(C(F)(F)F)cc2)C1 (single isomer, unassigned) [Compound 261] | 100% | 100% | 100% | 92% | – | – | – | – |
| CC(C)(C)C(O)(Cn1cncn1)C1=NOC(COc2ccc(Cl)cc2Cl)C1 (single isomer, unassigned) [Compound 255] | 100% | 100% | 100% | 1% | – | – | – | – |
| CC1(C(O)(Cn2cncn2)C2=NOC(COc3ccc(Cl)cc3)C2)CC1 (single isomer, unassigned) [Compound 224] | 100% | 100% | – | 30% | – | – | – | – |
| OC(Cn1cncn1)(C1=NOC(COc2ccc(Cl)cc2)C1)C1(Cl)CC1 (single isomer, unassigned) [Compound 252] | 100% | 89% | 78% | 2% | – | – | – | – |
| OC(COc1ccc(Cl)cc1)(Cn1cncn1)C1=NOC(c2ccc(Cl)cc2)C1 (centres unmarked) [Compound 272] | 100% | 99% | 69% | 0% | – | – | – | – |
| CC(C)(C)CC(O)(Cn1cncn1)C1=NOC(COc2ccc(C(F)(F)F)cc2)C1 (single isomer, unassigned) [Compound 241] | 99% | 90% | – | 0% | – | – | – | – |
| OC(Cn1cncn1)(C1=NOC(Cc2ccc(-c3ccccc3)cc2)C1)c1ccc(Cl)cc1 (single isomer, unassigned) [Compound 204] | – | – | – | – | 100% | 99% | 77% | 0% |
| CC(C)(C)C(O)(Cn1cncn1)C1=NOC(COc2cccc(C(F)(F)F)c2)C1 (single isomer, unassigned) [Compound 254] | 100% | 99% | 99% | 0% | – | – | – | – |
| CC(C)(C)C(O)(Cn1cncn1)C1=NOC(CCOc2ccc(F)cc2)C1 (single isomer, unassigned) [Compound 269] | 100% | 100% | 99% | 73% | – | – | – | – |
| Cc1ccc(OCC2CC(C(O)(Cn3cncn3)C(C)(C)C)=NO2)cc1 (single isomer, unassigned) [Compound 234] | 0% | 99% | – | 0% | – | – | – | – |
